From ChEMBL document CHEMBL5344424, “3-Hydroxypyridin-4(1H)-one Derivatives as pqs Quorum Sensing Inhibitors Attenuate Virulence and Reduce Antibiotic Resistance in Pseudomonas aeruginosa” (J Med Chem, 2023)

Columns and labels:
[1] = Inhibition of quorum sensing system in Pseudomonas aeruginosa PAO1 assessed as inhibition of pyocyanin production incubated for 24 hrs by optical density based analysis
[2] = Inhibition of quorum sensing system in Pseudomonas aeruginosa PAO1 assessed as inhibition of pyocyanin production at 10 uM incubated for 24 hrs by optical density based analysis relative to control
Pseudomonas aeruginosa = test: Synergistic antibacterial activity against Pseudomonas aeruginosa PAO1 infected in Caenorhabditis elegans assessed as worm survival rate at 0.125 ug/ml incubated for 72 hrs in presence of compound 16e by bright-field microscopy relative to control; type: functional

Structure (SMILES)	IC50 [1]	inhibition [2]	survival at 0.125 µg/mL (Pseudomonas aeruginosa)
Cc1cc(=O)c(O)c(CNCc2cn(-c3ccc(F)cc3)nn2)n1C	18.2 µM	–	–
Cc1cc(=O)c(O)c(CNCc2cn(-c3ccccc3[N+](=O)[O-])nn2)n1C	> 50 µM	–	–
Cc1cc(=O)c(O)c(CNCc2cn(-c3ccccc3Cl)nn2)n1C	18.4 µM	–	–
COc1cccc(-n2cc(CNCc3c(O)c(=O)cc(C)n3C)nn2)c1	42 µM	–	–
Cn1cc(O)c(=O)cc1CNCc1cn(-c2ccc(Oc3ccccc3)cc2)nn1	6.1 µM	58.3%	–
Cc1cc(=O)c(O)c(CNCc2cn(-c3ccc(N4CCN(C)CC4)cc3)nn2)n1C	> 50 µM	–	–
Cc1cc(=O)c(O)c(CNCc2cn(-c3ccccn3)nn2)n1C	> 50 µM	–	–
Cn1cc(O)c(=O)cc1CNCc1cn(-c2ccc(OC(F)(F)F)cc2)nn1	18.9 µM	–	–
CCCCCCCCn1cc(CNCc2cc(=O)c(O)cn2C)nn1	21 µM	–	–
CCCCCCCCCn1cc(CNCc2c(O)c(=O)cc(C)n2C)nn1	6.6 µM	51.2%	–
Cc1cc(=O)c(O)c(CNCc2cn(-c3ccc(OC(F)(F)F)cc3)nn2)n1C	4 µM	66.7%	–
Cc1cc(=O)c(O)cn1Cc1cn(-c2ccc(Oc3ccccc3)cc2)nn1	8.4 µM	43.3%	–
Cc1cc(=O)c(O)c(CNCc2cn(-c3cccc(Cl)c3)nn2)n1C	> 50 µM	–	–
Cc1cc(=O)c(O)c(CNCc2cn(-c3ccc(Cl)cc3)nn2)n1C	15.2 µM	–	–
Cc1ccc(-n2cc(CNCc3c(O)c(=O)cc(C)n3C)nn2)cc1	8.5 µM	44.9%	–
COC(=O)c1ccccc1-n1cc(CNCc2c(O)c(=O)cc(C)n2C)nn1	28.4 µM	–	–
Cc1cc(=O)c(O)c(CNCc2cn(-c3ccccc3C(F)(F)F)nn2)n1C	9.8 µM	49%	–
Cc1cc(=O)c(O)c(CNCc2cn(-c3ccc(O)cc3)nn2)n1C	24 µM	–	–
Cc1cc(=O)c(O)c(CNCc2cn(-c3ccc(N(C)C)cc3)nn2)n1C	33.2 µM	–	–
CCCCCn1cc(CNCc2c(O)c(=O)cc(C)n2C)nn1	35.3 µM	–	–
Cc1cc(=O)c(O)c(CNCc2cn(-c3ccc(N)cc3)nn2)n1C	44.9 µM	–	–
COc1ccc(-n2cc(CNCc3c(O)c(=O)cc(C)n3C)nn2)cc1	6.9 µM	52%	–

Structure (SMILES)	IC50 [1]	inhibition [2]	survival at 0.125 µg/mL (Pseudomonas aeruginosa)
Cc1cc(=O)c(O)c(CNCc2cn(-c3ccccc3Br)nn2)n1C	32.2 µM	–	–
Cc1cc(=O)c(O)c(CNCc2cn(-c3ccccc3OC(F)(F)F)nn2)n1C	8.1 µM	50.1%	–
CCCCn1cc(CNCc2c(O)c(=O)cc(C)n2C)nn1	> 50 µM	–	–
O=C(O)c1cn(C2CC2)c2cc(N3CCNCC3)c(F)cc2c1=O [CIPROFLOXACIN]	–	–	35.7%
Cc1cc(=O)c(O)c(CNCc2cn(-c3ccncc3)nn2)n1C	> 50 µM	–	–
CCCCCCn1cc(CNCc2c(O)c(=O)cc(C)n2C)nn1	35.9 µM	–	–
CCCCCCCn1cc(CNCc2c(O)c(=O)cc(C)n2C)nn1	22 µM	–	–
Cc1cc(=O)c(O)c(CNCc2cn(-c3ccc(Br)cc3)nn2)n1C	46.2 µM	–	–
Cc1cc(=O)c(O)c(CNCc2cn(-c3ccccc3F)nn2)n1C	18.2 µM	–	–
Cc1cc(=O)c(O)c(CNCc2cn(-c3ccc(C(F)(F)F)cc3)nn2)n1C	7.7 µM	60.1%	–
COC(=O)c1ccc(-n2cc(CNCc3c(O)c(=O)cc(C)n3C)nn2)cc1	45.8 µM	–	–
CC(=O)c1ccc(-n2cc(CNCc3c(O)c(=O)cc(C)n3C)nn2)cc1	37.4 µM	–	–
Cc1cc(=O)c(O)c(CNCc2cn(-c3ccccc3C#N)nn2)n1C	> 50 µM	–	–
Cc1cc(=O)c(O)c(CNCc2cn(-c3cccc(F)c3)nn2)n1C	45.8 µM	–	–
CCCCCCCCn1cc(CNCc2c(O)c(=O)cc(C)n2C)nn1	4.6 µM	64%	–
COc1ccccc1-n1cc(CNCc2c(O)c(=O)cc(C)n2C)nn1	29.2 µM	–	–
CC(=O)c1ccccc1-n1cc(CNCc2c(O)c(=O)cc(C)n2C)nn1	24.8 µM	–	–
Cc1cc(=O)c(O)c(COCc2cn(-c3ccc(Oc4ccccc4)cc3)nn2)n1C	5.1 µM	55.1%	–
Cc1cc(=O)c(O)c(CNCc2cn(-c3ccc(C#N)cc3)nn2)n1C	> 50 µM	–	–
Cc1cc(=O)c(O)c(CNCc2cn(-c3ccccc3)nn2)n1C	34.7 µM	–	–
Cc1cc(=O)c(O)c(CNCC(=O)Nc2ccc(Oc3ccccc3)cc2)n1C	19.4 µM	–	–
